In patent US12017995B2, “Crystalline forms and salt forms of a kinase inhibitor” (Exelixis, Inc., priority 2018, dated 2024):
Entries after “also recorded” stand apart in the source; their conditions may differ. Like-named read-outs stand apart in the source and are kept apart here.

Assays:
Format in all cases: physicochemical
[1] = Disproportionation check: water slurry at ambient conditions and repeated acetone wash, XRPD of recovered material
Description: (§1) The physical stability of Hemifumarate Form B was investigated. Compound 1 Hemifumarate Form B was slurried in water at ambient conditions for approximately 24 hours. In a separate experiment, the material was repeatedly washed with acetone.
Solids were then collected by vacuum filtration and analyzed by XRPD.

[2] = Stability testing in open vials, 75% RH chamber at 40° C., analysed by PLM and XRPD; details: 15 days / approximately 2 weeks, XRPD
Description: as §1
Stability Testing: Various Compound 1 salts were placed in open vials within a 75% RH chamber (saturated sodium chloride solution). The RH chamber was placed in a 40° C. oven for 15-16 days. Samples were analyzed by PLM and XRPD upon the end of the duration.

[3] = Dynamic vapor sorption (DVS); details: for crystalline form of post-DVS sample by XRPD: after sorption/desorption; for water vapor uptake / weight gain by DVS: from 5% to 95% RH
Description: Dynamic Vapor Sorption (DVS)
a. VTI: Automated vapor sorption (VS) data were collected on a VTI SGA-100 Vapor Sorption Analyzer. NaCl and PVP were used as calibration standards. Samples were dried prior to analysis. Sorption and desorption data were collected over a range from 5% to 95% RH at 10% RH increments under a nitrogen purge. The equilibrium criterion used for analysis was less than 0.0100% weight change in 5 minutes with a maximum equilibration time of 3 hours. Data were not corrected for the initial moisture content of the samples.
b. Intrinsic: Automated vapor sorption (VS) data were collected on a Surface Measurement System DVS Intrinsic instrument. Samples were not dried prior to analysis. Sorption and desorption data were collected over a range from 5% to 95% RH at 10% RH increments under a nitrogen purge. The equilibrium criterion used for analysis was less than 0.0100% weight change in 5 minutes with a maximum equilibration time of 3 hours. Data were not corrected for the initial moisture content of the samples.

[4] = pKa and log P determination (Pion Inc./Sirius Analytical Instruments Ltd.)
Description: pKa and log P Determination: pKa and log P determination were performed by Pion Inc./Sirius Analytical Instruments Ltd. in East Sussex, United Kingdom.

| hygroscopicity by DVS ([3]; DVS isotherm) | crystalline form of post-DVS sample by XRPD [3] | water vapor uptake / weight gain by DVS [3] | weight gain/loss through the DVS sorption/desorption experiment ([3]; sorption/desorption 5% to 95% RH, without hysteresis) | pKa [4] | logP ([4]; read-out: cationic log P) | logP ([4]; read-out: neutral log P) | hygroscopicity by DVS (class) ([3]; 5% to 95% RH) | SMILES | disproportionation of the salt in acetone ([1]; repeatedly washed with acetone) | disproportionation of the salt in water ([1]; slurried in water at ambient conditions for approximately 24 hours) | physical stability at 40° C. and 75% RH [2] |
| --- | --- | --- | --- | --- | --- | --- | --- | --- | --- | --- | --- |
| not hygroscopic | remained unchanged | about 0.2 wt % | less than 0.2% |  |  |  |  | CNC(=O)c1cc2c(Oc3ccc(NC(=O)C4(C(=O)Nc5ccc(F)cc5)CC4)cc3)ccnc2cc1OC [Compound 1 Hemifumarate Form B] | disproportionation was not evident; also recorded: did not cause disproportionation | disproportionation was not evident; also recorded: did not cause disproportionation | physically stable; also recorded: did not change by XRPD |
|  | no change in crystalline form | ~0.91 wt % |  | 5.43 ± 0.4 | 1.79 ± 0.8 | 4.5 ± 0.5 | Limited | CNC(=O)c1cc2c(Oc3ccc(NC(=O)C4(C(=O)Nc5ccc(F)cc5)CC4)cc3)ccnc2cc1OC [Compound 1 Form A, 1-N′-(4-Fluorophenyl)-1-N-[4-[7-methoxy-6-(methylcarbamoyl)quinolin-4-yl]oxyphenyl]cyclopropane-1,1-dicarboxamide] |  |  |  |
